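The compound was tested at five concentrations on cells cultured in 96-well plates, with a 48-hour exposure period. GI50 is the concentration that inhibits growth by half. TGI: concentration producing complete growth inhibition.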
Columns and labels:
Test in all cases: growth of human tumour cells (NCI), 48 h
TK-10 renal = tested on: TK-10 renal
SF-295 CNS = tested on: SF-295 CNS
SNB-19 CNS = tested on: SNB-19 CNS
SN12C renal = tested on: SN12C renal
RXF 393 renal = tested on: RXF 393 renal
HT29 colon = tested on: HT29 colon
HL-60(TB) leukemia = tested on: HL-60(TB) leukemia
MOLT-4 leukemia = tested on: MOLT-4 leukemia
MALME-3M melanoma = tested on: MALME-3M melanoma
EKVX NSCLC = tested on: EKVX NSCLC

SMILES | TGI (TK-10 renal) [µM] | TGI (SF-295 CNS) [µM] | TGI (SNB-19 CNS) [µM] | TGI (SN12C renal) [µM] | TGI (RXF 393 renal) [µM] | TGI (HT29 colon) [µM] | GI50 (HL-60(TB) leukemia) [µM] | TGI (HL-60(TB) leukemia) [µM] | TGI (MOLT-4 leukemia) [µM] | TGI (MALME-3M melanoma) [µM] | TGI (EKVX NSCLC) [µM] | GI50 (HT29 colon) [µM] | GI50 (MALME-3M melanoma) [µM] | GI50 (EKVX NSCLC) [µM]
CCOP(=O)(OCC)C(C)(CC)NC(=O)C(C(F)(F)F)C(F)(F)F (stereo unspecified) | > 100 | > 100 | > 100 | > 100 | > 100 | > 100 | 25.8 | 64.6 | > 100 | > 100 | > 100 | – | – | –
CC(C)C1(O)C(=O)N(c2c(F)c(F)c(F)c(F)c2F)C(=S)N1CCSc1ccccc1 (stereo unspecified) | 27.9 | 32.1 | 31.9 | 29.3 | 33.1 | 32.5 | – | 29.2 | 30.7 | 31.6 | 33.5 | – | – | –
O=c1cc(NCc2ccncc2)[nH]c(=O)[nH]1 | > 100 | > 100 | > 100 | > 100 | > 100 | > 100 | – | > 100 | > 100 | > 100 | > 100 | – | – | –
CC(C)(C)C1CC[C@H](O)[C@H]([C@H](O)CC2CC(=O)N(c3ccccc3)C(=O)C2)C1 (stereo partly specified) | > 100 | > 100 | > 100 | > 100 | > 100 | > 100 | – | > 100 | > 100 | > 100 | > 100 | – | – | –
C=CC1CN2CCC1CC2C(O)c1ccnc2ccccc12 (stereo unspecified) | > 100 | > 100 | > 100 | > 100 | > 100 | > 100 | – | > 100 | > 100 | > 100 | > 100 | > 100 | 0.0846 | > 100
CCN(CC)c1ccc2cc(-c3nc4ccccc4c(=O)[nH]3)c(=N)oc2c1 | > 100 | > 100 | > 100 | > 100 | > 100 | > 100 | – | > 100 | > 100 | > 100 | > 100 | – | – | –
NS(=O)(=O)c1ccc(NNc2c3ccccc3nc3c(C(=O)Nc4ccc(S(=O)(=O)Nc5ncccn5)cc4)cccc23)cc1 | > 25 | > 25 | > 25 | > 25 | > 25 | > 25 | – | > 25 | > 25 | > 25 | > 25 | – | – | –
CC1(C2CCC3(C)OC3C2)CO1 (stereo unspecified) | > 100 | > 100 | > 100 | > 100 | > 100 | > 100 | – | > 100 | > 100 | > 100 | > 100 | – | – | –
Cc1ccc(S(=O)(=O)n2cc(C#N)c(C#N)c2)cc1 | > 100 | 61.6 | – | 69.1 | 94.3 | 65.9 | – | 71.6 | > 100 | 33.9 | > 100 | – | – | –
COC(=O)c1c(C)nc(C)c(NO)c1-c1ccccc1C(F)(F)F | 37.4 | > 100 | > 100 | 62.4 | 32 | 33.7 | – | > 100 | > 100 | 32.8 | > 100 | – | – | –
Nc1ncnc2c1ncn2Cc1cccc(CCl)c1 | 34.4 | 41.8 | – | 29.3 | 18.8 | > 100 | – | > 100 | > 100 | 37.7 | 37.1 | – | – | –
CC(=O)O[C@H]1CC[C@@]2(C)[C@H](CC[C@@H]3[C@@H]2CC[C@]2(C)[C@@H](c4ccc(=O)oc4)C[C@H]4O[C@]342)C1 | – | 2.97 | 9.36 | 9.49 | 0.673 | 12.7 | – | 0.592 | 0.556 | 2.61 | 2.39 | – | – | –
CN(C)C(=S)Oc1ccc2ccc(=O)oc2c1 | > 100 | > 100 | > 100 | > 100 | > 100 | > 100 | – | > 100 | > 100 | > 100 | > 100 | – | – | –
CC(=O)CC(=O)CCC(=O)O | > 100 | > 100 | > 100 | > 100 | > 100 | > 100 | – | > 100 | > 100 | > 100 | > 100 | – | – | –
C(/Cc1ccc2c(c1)OCO2)=N\NC1=NCCCN1 | > 100 | > 100 | > 100 | > 100 | > 100 | > 100 | – | > 100 | 55.2 | > 100 | > 100 | – | – | –
NC(=O)Cc1nc2c(=O)[nH]cnc2n1C1OC(CO)C(O)C1O (stereo unspecified) | > 100 | > 100 | > 100 | > 100 | > 100 | > 100 | – | > 100 | > 100 | > 100 | > 100 | – | – | –
COc1ccc(-c2cc(C(O)C3CCCCN3)c3ccccc3n2)cc1 (stereo unspecified) | 23.7 | 28.4 | 28.1 | 23.7 | 11.3 | 11.5 | – | 26.4 | 13.6 | 28.9 | 20.2 | – | – | –
CCN(CC)c1nc(N(C)C)c2ccccc2n1 | > 100 | > 100 | > 100 | > 100 | 76.6 | > 100 | – | > 100 | 30.3 | > 100 | 51.1 | – | – | –
Cc1ccc(-c2n[nH]c(=O)n2/N=C\c2ccccc2)cc1 | > 100 | 69 | > 100 | > 90.4 | > 81.5 | > 100 | – | > 100 | > 100 | > 100 | > 100 | – | – | –
COC(=O)[C@@H]1CN(C(=O)c2ccccc2)C(=O)N1C(=O)OCc1ccccc1 | > 100 | > 100 | > 100 | > 100 | > 100 | > 100 | – | > 100 | > 100 | > 100 | > 100 | – | – | –

From PubChem BioAssay (NCI)
